Where two headings read alike, the source gives them in different places.
Assays:
[1] = test system: hamster cheek pouch arterioles (arcade arteriole and terminal arteriolar feed); test: Microvascular response (arteriolar diameter change) to locally applied curcumin in hamster cheek pouch tissue, intravital microscopy; assay type: in vivo; conditions: for EC50: Mesocricetus auratus
rat comb burn model = test: Burn injury progression in the rat hot comb burn model, intravenous curcumin; assay type: in vivo; conditions: for interspaces that progressed to full thickness necrosis, histologic analysis: day 7, control 67%
Description: In this study, we determined the effects of curcumin on burn progression in the rat hot comb model. […] Pure curcumin (99.9% as determined by HPLC and mass spectroscopy analysis) produced under GMP was acquired from ChromaDex, Inc for the studies described below.
Animals were randomized to receive one of six intravenous doses of curcumin (0.3, 1.0, 3.0, 10, 30, or 100 μg/kg) in 1 ml of phosphate buffered saline (PBS) or PBS alone (buffer control) administered via the tail vein at 1 and 24 hours after injury. […] Full-thickness biopsies from the interspaces 7 days after injury were evaluated for evidence of necrosis after H&E staining. The percentages of interspaces that progressed to necrosis were compared with chi-squared (χ2) tests. At the seventh day, the number of interspaces that processed to full thickness necrosis was 67% for control, 58, 53, 37, 63, 53, and 26% for 0.1, 0.3, 1, 3, 10, 30 and 100 μg/kg curcumin respectively as determined by histologic analysis. Similar results were obtained for the macroscopic evaluation at day 2, 5, and 7. […] The same experiment was repeated a second time and gave essentially the same results.

[2] = curcumin alone, similar for arcade and feed

## COc1cc(/C=C/C(=O)CC(=O)/C=C/c2ccc(O)c(OC)c2)ccc1O [curcumin, (E,E)-1,7-bis (4-hydroxy-3-methoxyphenyl)-1,6-heptadiene-3,5,-dione]
[1]; 10^−4M LNNA, curcumin 10^−10 though 10^−7 M
  curcumin-induced dilation remaining with LNNA: significant curcumin-induced dilation remained
[1]; 10^−5M LNNA, 10^−12 to 10^−10 M curcumin
  curcumin-induced dilation remaining with LNNA: a significant dilation remained
[1]; 10^−5M LNNA, terminal feed arterioles, similar pattern in arcade
  curcumin-induced dilation with LNNA: attenuated
[1]; curcumin alone, micropipette 60 s, similar for arcade and feed, read-out: logEC50 for dilation (converted)
  EC50: 0.316 nM
[1]; curcumin alone, similar for arcade and feed, read-out: logEC50 for constriction (converted)
  EC50: 3.98 nM
[1]; phentolamine 10^−5 M, constrictor component removed, read-out: logEC50, dilation to curcumin with phentolamine (converted)
  EC50: 0.1 ± 0.004 nM
[1]; propranolol 10^−5 M, dilation component removed, read-out: logEC50, constriction to curcumin with propranolol (converted)
  EC50: 0.01 nM
[1]; PD142893 (endothelin antagonist) 10^−5 M
  effect of simultaneous PD142893 on the curcumin response: no effect
[1]; PD142893 (endothelin antagonist), no effect on baseline diameters
  effect of PD142893 on maximal dilation and constriction to curcumin: diminished the maximal dilation and enhanced the maximal constriction
[1]; Rp-8-br-cAMPS, curcumin 10^−6M, arcade, but not terminal arterioles
  curcumin-induced dilation with cAMP blockade: significantly suppressed
[1]; Rp-8-br-cAMPS, curcumin 10^−8M, arcade, but not terminal arterioles
  curcumin-induced constriction with cAMP blockade: attenuated
[1]; Rp-8-br-cGMPS, terminal and arcade arterioles
  curcumin-induced dilation with cGMP blockade: prevented all curcumin-induced dilation
[1]; after deliberate microvascular preconditioning
  local response after microvascular preconditioning: predominantly constriction
[1]; atropine (muscarinic antagonist) 10^−7 M
  effect of simultaneous atropine on the curcumin response: no effect
[1]; atropine (muscarinic antagonist), no effect on baseline diameters
  effect of atropine on maximal dilation and constriction to curcumin: diminished the maximal dilation and enhanced the maximal constriction
[1]; baseline diameter recovery and tone after repeated 60 second exposures
  constrictor and dilatory (cGMP and cAMP mediated) responses before and after repeated exposure (potential cytotoxicity): unchanged
[1]; curcumin 10^−6M continuously applied
  terminal arteriole diameter, 60 second time-course: initial vasodilation at 20 seconds was followed by vasoconstriction that peaked at 60 seconds
[1]; curcumin 10^−10M continuously applied
  terminal arteriole diameter, 60 second time-course: sustained dilation
[1]; curcumin 10^−10 M, 10^−8M and 10^−6M, terminal and arcade arterioles
  response to curcumin with propranolol and phentolamine together: blocked all response
[1]; [2]
  peak constriction: −15±5%
  peak dilation: +40±8%
[1]; dose-response 10^−13M to 10^−3M, 20 s and 60 s
  peak dilation, terminal versus arcade arterioles: significantly greater for terminal arterioles than for arcade arterioles
[1]; in vivo studies to date, after preconditioning
  concentration inducing vasodilation after versus before preconditioning: lower concentrations
[1]; nitro-arginine added to the tissue bath
  effect on arteriolar diameter during induced endothelial dysfunction: the dilation component was potentiated and constriction was attenuated
[1]; phentolamine 10^−5 M, arcade arteriole
  peak dilation to curcumin with phentolamine, arcade: +34±9
[1]; phentolamine 10^−5 M, terminal feed arteriole
  peak dilation to curcumin with phentolamine, feed: +65 +10
[1]; propranolol 10^−5 M
  peak constriction to curcumin with propranolol: −30 ±7%
[1]; terminal arteriole, phentolamine 10^−5M
  constriction response to curcumin with phentolamine: abolished
[1]; terminal arteriole, propranolol 10^−5M
  dilation response to curcumin with propranolol: abolished
Rat comb burn model; 3 μg/kg and 100 μg/kg i.v., p<0.01, macroscopic evaluation and histologic analysis
  progression to necrosis compared to control: significantly less progression to necrosis
Rat comb burn model; fifth value listed (30 μg/kg by method)
  interspaces that progressed to full thickness necrosis, histologic analysis: 53%
Rat comb burn model; fourth value listed (10 μg/kg by method)
  interspaces that progressed to full thickness necrosis, histologic analysis: 63%
Rat comb burn model; i.v. at 1 and 24 h after injury, first value listed (0.3 μg/kg by method, 0.1 μg/kg by the sentence)
  interspaces that progressed to full thickness necrosis, histologic analysis: 58%
Rat comb burn model; last value listed (100 μg/kg)
  interspaces that progressed to full thickness necrosis, histologic analysis: 26%
Rat comb burn model; second value listed (1 μg/kg by method)
  interspaces that progressed to full thickness necrosis, histologic analysis: 53%
Rat comb burn model; third value listed (3 μg/kg by method)
  interspaces that progressed to full thickness necrosis, histologic analysis: 37%

Reference: patent US20130005824A1, “TREATMENT OF ISCHEMIC TISSUE” (The Research Foundation of State University of New York, priority 2009, published 2013)
